From publication doi:10.1101/2023.08.31.555806v1 (biorxiv, 2023)

Biological target: T1, VraS (GST-VraS) (Staphylococcus aureus, UniProt Q7A2Q0)
T1 sequence (Q7A2Q0 1-347): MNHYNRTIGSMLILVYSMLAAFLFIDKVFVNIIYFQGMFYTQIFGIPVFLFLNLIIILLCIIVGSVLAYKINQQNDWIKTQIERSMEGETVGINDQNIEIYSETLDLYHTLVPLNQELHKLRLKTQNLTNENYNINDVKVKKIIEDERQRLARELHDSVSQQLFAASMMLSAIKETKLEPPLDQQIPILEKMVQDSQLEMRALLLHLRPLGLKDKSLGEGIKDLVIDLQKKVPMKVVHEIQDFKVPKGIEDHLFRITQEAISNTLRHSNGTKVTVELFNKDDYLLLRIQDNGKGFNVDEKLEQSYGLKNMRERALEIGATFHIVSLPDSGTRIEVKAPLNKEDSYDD
Assay: ATPase activity, pyruvate kinase/lactate dehydrogenase-coupled NADH fluorescence
Assay type: biochemical

Compound: CCSc1nc2ccc(NC(=O)NC(c3cc(C)ccn3)C3CC3)cc2o1 (stereo not shown) [compound 1, 1-(cyclopropyl(4-methylpyridin-2-yl)methyl)-3-(2-(ethylthio)benzo[d]oxazol-6-yl)urea]
- IC50: 940 ± 290 nM
